Results: ChEMBL document CHEMBL1201862, “PubChem BioAssay data set” (2004)
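Protocol summary: plate cells (96-well), add compound at 5 concentrations, incubate 48 h, interpolate endpoints linearly. GI50 = concentration required for 50% inhibition of growth.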 Active and inactive are the calls of the source. Rule as the data show it: active = GI50 up to about 1.1 µM and inactive = higher.

How the values were obtained:
Experiment in all cases: growth of human tumour cells (NCI), 48 h
786-0 = tested on: 786-0
SK-MEL-28 = tested on: SK-MEL-28
HOP-18 = tested on: HOP-18
SK-MEL-2 = tested on: SK-MEL-2
CAKI-1 = tested on: CAKI-1
CCRF-CEM = tested on: CCRF-CEM
IGROV-1 = tested on: IGROV-1
SF-295 = tested on: SF-295
HCT-116 = tested on: HCT-116
HT-29 = tested on: HT-29
EKVX = tested on: EKVX
NCI-H226 = tested on: NCI-H226
SF-539 = tested on: SF-539
SK-MEL-5 = tested on: SK-MEL-5
KM-20L2 = tested on: KM-20L2
LXFL 529 = tested on: LXFL 529
UACC-62 = tested on: UACC-62
Malme-3M = tested on: Malme-3M
OVCAR-5 = tested on: OVCAR-5
A549 = tested on: A549
XF498 = tested on: XF498
RPMI-8226 = tested on: RPMI-8226
RXF 631 = tested on: RXF 631
HCT-15 = tested on: HCT-15
U-251 = tested on: U-251
M19-MEL = tested on: M19-MEL
UACC-257 = tested on: UACC-257
HL-60 = tested on: HL-60
SK-OV-3 = tested on: SK-OV-3
A498 = tested on: A498
HCC 2998 = tested on: HCC 2998
SNB-19 = tested on: SNB-19
SF-268 = tested on: SF-268
SNB-75 = tested on: SNB-75
SR = tested on: SR
UO-31 = tested on: UO-31
NCI-H460 = tested on: NCI-H460
KM12 = tested on: KM12
SNB-78 = tested on: SNB-78
M14 = tested on: M14
LOX IMVI = tested on: LOX IMVI
RXF 393 = tested on: RXF 393
DLD-1 = tested on: DLD-1
NCI-H23 = tested on: NCI-H23
OVCAR-3 = tested on: OVCAR-3
ACHN = tested on: ACHN
NCI-H522 = tested on: NCI-H522
COLO 205 = tested on: COLO 205
HOP-62 = tested on: HOP-62
SN12C = tested on: SN12C
DMS-114 = tested on: DMS-114
OVCAR-8 = tested on: OVCAR-8
MOLT-4 = tested on: MOLT-4
HOP-92 = tested on: HOP-92
TK-10 = tested on: TK-10
K562 = tested on: K562
SW-620 = tested on: SW-620
DMS-273 = tested on: DMS-273
OVCAR-4 = tested on: OVCAR-4

In the case of CN1CC[C@]2(C)c3ccc(O)cc3CC3CCCC1C32C (stereo not given in full), the GI50 (786-0) was > 100 µM (inactive), the GI50 (SK-MEL-28) was > 100 µM (inactive) and the GI50 (HOP-18) was > 100 µM (inactive). The GI50 (SK-MEL-2) was > 100 µM (inactive), the GI50 (CAKI-1) was > 100 µM (inactive) and the GI50 (CCRF-CEM) was > 100 µM (inactive). The GI50 (IGROV-1) was > 100 µM (inactive), the GI50 (SF-295) was > 100 µM (inactive) and the GI50 (HCT-116) was > 100 µM (inactive). For the same molecule, the GI50 (HT-29) was > 100 µM (inactive), the GI50 (EKVX) was > 100 µM (inactive) and the GI50 (NCI-H226) was > 100 µM (inactive). The GI50 (SF-539) was > 100 µM (inactive), the GI50 (SK-MEL-5) was > 100 µM (inactive) and the GI50 (KM-20L2) was > 100 µM (inactive). The GI50 (LXFL 529) was > 100 µM (inactive), the GI50 (UACC-62) was > 100 µM (inactive) and the GI50 (Malme-3M) was > 100 µM (inactive). For the same molecule, the GI50 (OVCAR-5) was > 100 µM (inactive), the GI50 (A549) was > 100 µM (inactive) and the GI50 (XF498) was > 100 µM (inactive). The GI50 (RPMI-8226) was > 100 µM (inactive), the GI50 (RXF 631) was > 100 µM (inactive) and the GI50 (HCT-15) was over 100 µM. For the same molecule, the GI50 (U-251) was > 100 µM (inactive), the GI50 (M19-MEL) was > 100 µM (inactive) and the GI50 (UACC-257) was > 100 µM (inactive). For the same molecule, the GI50 (HL-60) was > 100 µM (inactive), the GI50 (SK-OV-3) was > 100 µM (inactive) and the GI50 (A498) was > 100 µM (inactive). For the same molecule, the GI50 (HCC 2998) was > 100 µM (inactive), the GI50 (SNB-19) was > 100 µM (inactive) and the GI50 (SF-268) was > 100 µM (inactive). The GI50 (SNB-75) was 80.9 µM (inactive), the GI50 (SR) was > 100 µM (inactive) and the GI50 (UO-31) was 92.3 µM (inactive). For the same molecule, the GI50 (NCI-H460) was > 100 µM (inactive), the GI50 (KM12) was > 100 µM (inactive) and the GI50 (SNB-78) was > 100 µM (inactive). The GI50 (M14) was > 100 µM (inactive), the GI50 (LOX IMVI) was > 100 µM (inactive) and the GI50 (RXF 393) was > 100 µM (inactive). The GI50 (DLD-1) was > 100 µM (inactive), the GI50 (NCI-H23) was > 100 µM (inactive) and the GI50 (OVCAR-3) was > 100 µM (inactive). For the same molecule, the GI50 (ACHN) was > 100 µM (inactive), the GI50 (NCI-H522) was > 100 µM (inactive) and the GI50 (COLO 205) was > 100 µM (inactive). For the same molecule, the GI50 (HOP-62) was > 100 µM (inactive), the GI50 (SN12C) was > 100 µM (inactive) and the GI50 (DMS-114) was > 100 µM (inactive). For the same molecule, the GI50 (OVCAR-8) was > 100 µM (inactive), the GI50 (MOLT-4) was > 100 µM (inactive) and the GI50 (HOP-92) was > 100 µM (inactive). For the same molecule, the GI50 (TK-10) was > 100 µM (inactive) and the GI50 (K562) was > 100 µM (inactive).

In the case of CC(O)c1ccc(C(O)/C(=N\NC(=O)c2ccncc2)c2nc3ccc([N+](=O)[O-])cc3nc2O)cc1 (stereo not given), the GI50 (SW-620) was > 100 µM (inactive), the GI50 (786-0) was > 100 µM (inactive) and the GI50 (SK-MEL-28) was > 100 µM (inactive). For the same molecule, the GI50 (CAKI-1) was 52.8 µM (inactive), the GI50 (CCRF-CEM) was > 100 µM (inactive) and the GI50 (IGROV-1) was > 100 µM (inactive). The GI50 (SF-295) was > 100 µM (inactive), the GI50 (HCT-116) was > 100 µM (inactive) and the GI50 (HT-29) was 96.2 µM (inactive). The GI50 (NCI-H226) was > 100 µM (inactive), the GI50 (SF-539) was 37 µM (inactive) and the GI50 (SK-MEL-5) was > 100 µM (inactive). For the same molecule, the GI50 (DMS-273) was 83.8 µM (inactive), the GI50 (KM-20L2) was 33.3 µM (inactive) and the GI50 (LXFL 529) was 54.6 µM (inactive). For the same molecule, the GI50 (UACC-62) was 59.2 µM (inactive), the GI50 (Malme-3M) was > 100 µM (inactive) and the GI50 (OVCAR-5) was > 100 µM (inactive). For the same molecule, the GI50 (A549) was > 100 µM (inactive), the GI50 (XF498) was > 100 µM (inactive) and the GI50 (RPMI-8226) was > 100 µM (inactive). The GI50 (RXF 631) was > 100 µM (inactive), the GI50 (HCT-15) was 34.8 µM and the GI50 (U-251) was > 100 µM (inactive). For the same molecule, the GI50 (M19-MEL) was > 100 µM (inactive), the GI50 (UACC-257) was > 100 µM (inactive) and the GI50 (HL-60) was 50.5 µM (inactive). For the same molecule, the GI50 (SK-OV-3) was > 100 µM (inactive), the GI50 (HCC 2998) was 75.2 µM (inactive) and the GI50 (SNB-19) was > 100 µM (inactive). For the same molecule, the GI50 (SF-268) was > 100 µM (inactive), the GI50 (SNB-75) was > 100 µM (inactive) and the GI50 (SR) was 75 µM (inactive). For the same molecule, the GI50 (UO-31) was > 100 µM (inactive), the GI50 (NCI-H460) was > 100 µM (inactive) and the GI50 (OVCAR-4) was > 100 µM (inactive). The GI50 (KM12) was 49 µM (inactive), the GI50 (SNB-78) was > 100 µM (inactive) and the GI50 (M14) was > 100 µM (inactive). For the same molecule, the GI50 (LOX IMVI) was 30 µM (inactive), the GI50 (RXF 393) was > 100 µM (inactive) and the GI50 (DLD-1) was > 100 µM (inactive). The GI50 (NCI-H23) was > 100 µM (inactive), the GI50 (OVCAR-3) was > 100 µM (inactive) and the GI50 (ACHN) was 42.4 µM (inactive). The GI50 (NCI-H522) was 19.8 µM (inactive), the GI50 (COLO 205) was > 100 µM (inactive) and the GI50 (HOP-62) was > 100 µM (inactive). For the same molecule, the GI50 (SN12C) was > 100 µM (inactive), the GI50 (DMS-114) was 16.7 µM (inactive) and the GI50 (OVCAR-8) was > 100 µM (inactive). For the same molecule, the GI50 (MOLT-4) was > 100 µM (inactive), the GI50 (HOP-92) was > 100 µM (inactive) and the GI50 (K562) was 40.8 µM (inactive).
